The values below come from article PMC3849192, “A Simple Method for Assessing Free Brain/Free Plasma Ratios Using an In Vitro Model of the Blood Brain Barrier” (PLoS ONE, 2013).

Data set [1] in a line: Fraction unbound brain (fu,br), brain homogenate equilibrium dialysis. To be noted: brain homogenate (10%), 1 µM, equilibrium dialysis 18 hrs at 37°C. The method, then:
The degree of brain binding was assessed by equilibrium dialysis. Brain homogenate (10%) was spiked with test compound at 1 µM in triplicate. […] The plate was then placed in a shaker/incubator to equilibrate for 18 hrs at 37°C. […] After the addition of 50 µl of buffer to the brain homogenate samples, 150 µl of acetonitrile was added to each sample. Finally, 50 µl of water was added to all buffer and brain homogenate samples. The plates were centrifuged and the supernatant analyzed by LC-MS/MS.

Data set [2] in a line: Fraction unbound brain (fu,br), brain slice method. The settings on record: rat brain slices 300 µm, 1 µM, 5 h incubation. The method, then: Rats (male Sprague-Dawley) were decapitated under isoflurane anesthesia and the brains were removed carefully and immersed in ice-cold oxygenated physiological buffer at pH7.4. A 6 mm coronal section was cut with a razor and mounted with cyanoacrylate glue onto the tray of the microslicer (DTK-Zero 1 Microslicer, Dosak) after which six to eight 300 µm coronal slices from striatal areas were prepared. […] The compounds were dissolved at 1 µM in the buffer and the solution was incubated with the slice for 5 h.
After 5 h, the brain slices were weighed and homogenized in 9 volumes (w/v) of ECF buffer with a sonicator (SONICS VCX 500 and VCX 130). The slice homogenates in ECF buffer were stored at −20°C prior to analysis. The concentrations of the test compound in the brain slice homogenate and in the ECF buffer was determined by LC-MS/MS.
The unbound volume of distribution Vu,brain, or free fraction fu,brain was calculated according to the following equations: [drawing 1] [drawing 2] where Cslice, CECF and V0 are amount of drug in the slice, the drug concentration in the ECF (representing the drug concentration in the brain ECF, i.e. the free concentration), and the water adhesion of the brain slice. V0 has been estimated using ^14C -inulin in a separate experiment in which brain slices were incubated for 1, 2, and 4 min. V0 was obtained from brain slice uptake – inulin time profile (apparent zero-time intercept).

Data set [3] is described as follows: Brain microdialysis, free brain and plasma concentration-time profiles. To be noted: male, Wistar, sc, rat, 30 µmol/kg s.c., read-out: Cu,br/Cu,pl in microdialysis. It is filed as in vivo. The method, then:
Adult male Wistar rats (280–350 g; Harlan, Horst, The Netherlands) were used for the experiments.
Rats were anesthetized using isoflurane 2% and O2. Before the surgery, Fynadine (1 mg/kg s.c.) was administered for analgesia during surgery and recovery. A mixture of Marcaine and adrenaline was used for local anesthesia on the head. Implantation of a microdialysis probe into the brain and a catheter into the right jugular vein was performed in the same surgical procedure. After surgery animals were housed individually (cages 30×30×40 cm), food and water was ad libitum available. Surgery was carried out at least 24 hours before the start of the experiments.
Each animal was placed into a stereotaxic frame (Kopf instruments, USA). A non-metal guide cannula with a MetaQuant probe (MQ 6/4, regenerated cellulose membrane, 4 mm exposed surface, Brainlink, The Netherlands) was implanted with in the prefrontal cortex (PFC), its tip at the following coordinates: AP = 3.4 mm (to bregma), lateral 0.8 mm (to midline), ventral −5.0 mm (to dura) with Toothbar set at −3.3 mm, according to the atlas of Paxinos and Watson (1982). […]
To test whether probe recoveries were sufficiently high to enable quantitative measurements of brain extracellular concentrations in the in vivo microdialysis experiments, each of the compounds was subjected to an in vitro recovery test. […]

In the case of `CN1CCN(C2=Nc3cc(Cl)ccc3Nc3ccccc32)CC1` [Clozapine], the “fubrain (homog.) Mean” value in data set [1] stood at 0.0094. The “fubrain (slice) Mean” value in data set [2] is on record as 0.0100. Moreover, in data set [3] (at 30 min), the Kp at 30 min worked out at 0.04. For the same molecule, in data set [3] (at 240 min), the Kp at 240 min is 1.71.
